# Experimental data from ChEMBL document CHEMBL1201861, “Genomics of Drug Sensitity in Cancer screening data, Wellcome Trust Sanger Institute”.
# pIC50: −log10 of the molar value.
# Columns and labels:
# Test in all cases: cells
# Assay type in all cases: functional, cell-based, Homo sapiens
# D-247MG = settings: Homo sapiens, D-247MG
# Description: SANGER: Inhibition of human D-247MG cell growth in a cell viability assay.
# DJM-1 = settings: Homo sapiens, DJM-1;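 note: growth inhibition of human DJM-1 cells, read out by a cell viability assay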
# Description: SANGER: Inhibition of human DJM-1 cell growth in a cell viability assay.
# DMS-79 = settings: Homo sapiens, DMS-79;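 note: growth inhibition measured with a cell viability assay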
# Description: SANGER: Inhibition of human DMS-79 cell growth in a cell viability assay.
# DU-4475 = settings: Homo sapiens, DU-4475
# Description: SANGER: Inhibition of human DU-4475 cell growth in a cell viability assay.
# EW-1 = settings: Homo sapiens, EW-1
# Description: SANGER: Inhibition of human EW-1 cell growth in a cell viability assay.
# EW-18 = settings: Homo sapiens, EW-18;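 note: growth inhibition of EW-18 cells, read out by a cell viability assay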
# Description: SANGER: Inhibition of human EW-18 cell growth in a cell viability assay.
# GAK = settings: Homo sapiens, GAK;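 note: cell growth inhibition read out by a cell viability assay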
# Description: SANGER: Inhibition of human GAK cell growth in a cell viability assay.
# GB-1 = settings: Homo sapiens, GB-1;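 note: growth of GB-1 cells judged by a viability assay, IC50 marks the concentration inhibiting growth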
# Description: SANGER: Inhibition of human GB-1 cell growth in a cell viability assay.
# HCC 2998 = settings: Homo sapiens, HCC 2998;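 note: growth inhibition of human HCC2998 cells, measured with a cell viability read-out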
# Description: SANGER: Inhibition of human HCC2998 cell growth in a cell viability assay.
# HDLM-2 = settings: Homo sapiens, HDLM-2;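 note: cell viability assay measuring suppression of HDLM-2 proliferation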
# Description: SANGER: Inhibition of human HDLM-2 cell growth in a cell viability assay.
# IST-MEL1 = settings: Homo sapiens, IST-MEL1;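 note: growth inhibition of the cell line, read out with a cell viability assay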
# Description: SANGER: Inhibition of human IST-MEL1 cell growth in a cell viability assay.
# K562 = settings: Homo sapiens, K562
# Description: SANGER: Inhibition of human K-562 cell growth in a cell viability assay.
# KALS-1 = settings: Homo sapiens, KALS-1;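 note: growth inhibition of KALS-1 cells, determined with a cell viability assay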
# Description: SANGER: Inhibition of human KALS-1 cell growth in a cell viability assay.
# KINGS-1 = settings: Homo sapiens, KINGS-1;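 note: cell viability assay measuring suppression of KINGS-1 cell growth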
# Description: SANGER: Inhibition of human KINGS-1 cell growth in a cell viability assay.
# L-363 = settings: Homo sapiens, L-363
# Description: SANGER: Inhibition of human L-363 cell growth in a cell viability assay.
# LOX IMVI = settings: Homo sapiens, LOX IMVI
# Description: SANGER: Inhibition of human LOXIMVI cell growth in a cell viability assay.
# LS-123 = settings: Homo sapiens, LS-123
# Description: SANGER: Inhibition of human LS-123 cell growth in a cell viability assay.
# MOLT-4 = settings: Homo sapiens, MOLT-4;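 note: growth inhibition of MOLT-4 cells, determined with a cell viability readout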
# Description: SANGER: Inhibition of human MOLT-4 cell growth in a cell viability assay.
# MS-1 = settings: Homo sapiens, MS-1;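 note: growth inhibition of MS-1 cells, read out by cell viability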
# Description: SANGER: Inhibition of human MS-1 cell growth in a cell viability assay.
# Mo = settings: Homo sapiens, Mo
# Description: SANGER: Inhibition of human Mo-T cell growth in a cell viability assay.
# NB10 = settings: Homo sapiens, NB10;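 note: growth inhibition of NB10 cells, read out by a cell viability assay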
# Description: SANGER: Inhibition of human NB10 cell growth in a cell viability assay.
# NB17 = settings: Homo sapiens, NB17;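 note: growth inhibition of NB17 cells, read out with a cell viability assay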
# Description: SANGER: Inhibition of human NB17 cell growth in a cell viability assay.
# NCI-H1299 = settings: Homo sapiens, NCI-H1299;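 note: growth inhibition of human NCI-H1299 cells, read out by a cell viability assay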
# Description: SANGER: Inhibition of human NCI-H1299 cell growth in a cell viability assay.
# NCI-H1304 = settings: Homo sapiens, NCI-H1304;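 note: growth inhibition of the cancer cell line, measured in a cell viability assay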
# Description: SANGER: Inhibition of human NCI-H1304 cell growth in a cell viability assay.
# NCI-H1581 = settings: Homo sapiens, NCI-H1581;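 note: cell growth inhibition read out by a viability assay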
# Description: SANGER: Inhibition of human NCI-H1581 cell growth in a cell viability assay.
# NCI-H1770 = settings: Homo sapiens, NCI-H1770;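 note: growth inhibition of NCI-H1770 cells determined with a viability readout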
# Description: SANGER: Inhibition of human NCI-H1770 cell growth in a cell viability assay.
# NCI-H526 = settings: Homo sapiens, NCI-H526;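 note: growth inhibition of the human NCI-H526 cell line, measured by a cell viability assay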
# Description: SANGER: Inhibition of human NCI-H526 cell growth in a cell viability assay.
# OCI-AML2 = settings: Homo sapiens, OCI-AML2;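 note: growth inhibition of OCI-AML2 cells, read out with a cell viability assay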
# Description: SANGER: Inhibition of human OCI-AML2 cell growth in a cell viability assay.
# OCUB-M = settings: Homo sapiens, OCUB-M;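 note: growth inhibition of the cancer cell line, read out through a cell viability assay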
# Description: SANGER: Inhibition of human OCUB-M cell growth in a cell viability assay.
# OVCAR-4 = settings: Homo sapiens, OVCAR-4;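 note: growth inhibition of human OVCAR-4 cells, measured with a cell viability assay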
# Description: SANGER: Inhibition of human OVCAR-4 cell growth in a cell viability assay.
# PSN1 = settings: Homo sapiens, PSN1;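 note: suppression of growth of human PSN1 cells, read out by a cell viability assay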
# Description: SANGER: Inhibition of human PSN1 cell growth in a cell viability assay.
# RH-1 = settings: Homo sapiens, RH-1;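 note: growth inhibition of human RH-1 cells, read out with a cell viability assay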
# Description: SANGER: Inhibition of human RH-1 cell growth in a cell viability assay.
# RPMI-8226 = settings: Homo sapiens, RPMI-8226
# Description: SANGER: Inhibition of human RPMI-8226 cell growth in a cell viability assay.
# RPMI-8866 = settings: Homo sapiens, RPMI-8866
# Description: SANGER: Inhibition of human RPMI-8866 cell growth in a cell viability assay.
# RXF 393 = settings: Homo sapiens, RXF 393;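 note: growth inhibition of human RXF 393 cells, read out with a cell viability assay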
# Description: SANGER: Inhibition of human RXF393 cell growth in a cell viability assay.
# Ramos-2G6-4C10 = settings: Homo sapiens, Ramos-2G6-4C10;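 note: growth inhibition of the cell line, measured by a cell viability read-out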
# Description: SANGER: Inhibition of human Ramos-2G6-4C10 cell growth in a cell viability assay.
# SCC-15 = settings: Homo sapiens, SCC-15;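 note: growth inhibition of SCC-15 cells, read out with a cell viability assay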
# Description: SANGER: Inhibition of human SCC-15 cell growth in a cell viability assay.
# SCH = settings: Homo sapiens, SCH;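 note: growth inhibition of human SCH cells, read out in a cell viability assay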
# Description: SANGER: Inhibition of human SCH cell growth in a cell viability assay.
# SF-268 = settings: Homo sapiens, SF-268;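 note: growth inhibition of SF-268 cells determined with a cell viability assay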
# Description: SANGER: Inhibition of human SF268 cell growth in a cell viability assay.
# SK-MEL-2 = settings: Homo sapiens, SK-MEL-2;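 note: growth inhibition of human SK-MEL-2 cells measured with a cell viability assay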
# Description: SANGER: Inhibition of human SK-MEL-2 cell growth in a cell viability assay.
# SW 954 = settings: Homo sapiens, SW 954;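 note: growth inhibition of SW954 human cancer cells, read out as cell viability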
# Description: SANGER: Inhibition of human SW954 cell growth in a cell viability assay.
# SW982 = settings: Homo sapiens, SW982;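 note: growth inhibition of SW982 cells, read out with a cell viability assay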
# Description: SANGER: Inhibition of human SW982 cell growth in a cell viability assay.
# BV-173 = settings: Homo sapiens, BV-173
# Description: SANGER: Inhibition of human BV-173 cell growth in a cell viability assay.
# TE-6 = settings: Homo sapiens, TE-6;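 note: growth inhibition of TE-6 cells, read out with a cell viability assay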
# Description: SANGER: Inhibition of human TE-6 cell growth in a cell viability assay.
# TGBC24TKB = settings: Homo sapiens, TGBC24TKB;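 note: growth inhibition of human TGBC24TKB cells, read out with a cell viability assay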
# Description: SANGER: Inhibition of human TGBC24TKB cell growth in a cell viability assay.
# U-266 = settings: Homo sapiens, U-266
# Description: SANGER: Inhibition of human U-266 cell growth in a cell viability assay.
# UACC-257 = settings: Homo sapiens, UACC-257
# Description: SANGER: Inhibition of human UACC-257 cell growth in a cell viability assay.
# no-11 = settings: Homo sapiens;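 note: growth inhibition of human NO-11 cells, read out with a cell viability assay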
# Description: SANGER: Inhibition of human no-11 cell growth in a cell viability assay.
# CGTH-W-1 = settings: Homo sapiens, CGTH-W-1;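 note: growth inhibition of human CGTH-W-1 cells measured by cell viability assay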
# Description: SANGER: Inhibition of human CGTH-W-1 cell growth in a cell viability assay.
structure (smiles),measurement,setting,value
Nc1cccc2c1CN(C1CCC(=O)NC1=O)C2=O (stereo unspecified) [LENALIDOMIDE],pIC50,D-247MG,< 5.30
same,pIC50,DJM-1,< 5.30
same,pIC50,DMS-79,< 5.30
same,pIC50,DU-4475,< 5.30
same,pIC50,EW-1,< 5.30
same,pIC50,EW-18,< 5.30
same,pIC50,GAK,< 5.30
same,pIC50,GB-1,< 5.30
same,pIC50,HCC 2998,< 5.30
same,pIC50,HDLM-2,< 5.30
same,pIC50,IST-MEL1,< 5.30
same,pIC50,K562,< 5.30
same,pIC50,KALS-1,< 5.30
same,pIC50,KINGS-1,< 5.30
same,pIC50,L-363,5.53
same,pIC50,LOX IMVI,< 5.30
same,pIC50,LS-123,< 5.30
same,pIC50,MOLT-4,< 5.30
same,pIC50,MS-1,< 5.30
same,pIC50,Mo,< 5.30
same,pIC50,NB10,< 5.30
same,pIC50,NB17,< 5.30
same,pIC50,NCI-H1299,< 5.30
same,pIC50,NCI-H1304,< 5.30
same,pIC50,NCI-H1581,< 5.30
same,pIC50,NCI-H1770,< 5.30
same,pIC50,NCI-H526,< 5.30
same,pIC50,OCI-AML2,< 5.30
same,pIC50,OCUB-M,< 5.30
same,pIC50,OVCAR-4,< 5.30
same,pIC50,PSN1,< 5.30
same,pIC50,RH-1,< 5.30
same,pIC50,RPMI-8226,< 5.30
same,pIC50,RPMI-8866,< 5.30
same,pIC50,RXF 393,< 5.30
same,pIC50,Ramos-2G6-4C10,< 5.30
same,pIC50,SCC-15,< 5.30
same,pIC50,SCH,< 5.30
same,pIC50,SF-268,< 5.30
same,pIC50,SK-MEL-2,< 5.30
same,pIC50,SW 954,< 5.30
same,pIC50,SW982,< 5.30
same,pIC50,BV-173,< 5.30
same,pIC50,TE-6,< 5.30
same,pIC50,TGBC24TKB,< 5.30
same,pIC50,U-266,< 5.30
same,pIC50,UACC-257,< 5.30
same,pIC50,no-11,< 5.30
same,pIC50,CGTH-W-1,< 5.30
Cc1cn(-c2cc(NC(=O)c3ccc(C)c(Nc4nccc(-c5cccnc5)n4)c3)cc(C(F)(F)F)c2)cn1 [NILOTINIB],pIC50,D-247MG,< 5.70
same,pIC50,DJM-1,< 5.70
same,pIC50,DMS-79,< 5.70
same,pIC50,DU-4475,< 5.70
same,pIC50,EW-1,< 5.70
same,pIC50,EW-18,< 5.70
same,pIC50,GAK,< 5.70
same,pIC50,GB-1,< 5.70
same,pIC50,HCC 2998,< 5.70
same,pIC50,HDLM-2,< 5.70
same,pIC50,IST-MEL1,< 5.70
same,pIC50,K562,< 5.70
same,pIC50,KALS-1,< 5.70
same,pIC50,KINGS-1,< 5.70
same,pIC50,L-363,< 5.70
same,pIC50,LOX IMVI,< 5.70
same,pIC50,LS-123,< 5.70
same,pIC50,MOLT-4,< 5.70
same,pIC50,MS-1,< 5.70
same,pIC50,Mo,< 5.70
same,pIC50,NB10,< 5.70
same,pIC50,NB17,< 5.70
same,pIC50,NCI-H1299,< 5.70
same,pIC50,NCI-H1304,< 5.70
same,pIC50,NCI-H1581,< 5.70
same,pIC50,NCI-H1770,< 5.70
same,pIC50,NCI-H526,< 5.70
same,pIC50,OCI-AML2,< 5.70
same,pIC50,OCUB-M,< 5.70
same,pIC50,OVCAR-4,< 5.70
same,pIC50,PSN1,< 5.70
same,pIC50,RH-1,< 5.70
same,pIC50,RPMI-8226,< 5.70
same,pIC50,RPMI-8866,< 5.70
same,pIC50,RXF 393,< 5.70
same,pIC50,Ramos-2G6-4C10,< 5.70
same,pIC50,SCC-15,< 5.70
same,pIC50,SCH,< 5.70
same,pIC50,SF-268,< 5.70
same,pIC50,SK-MEL-2,< 5.70
same,pIC50,SW 954,< 5.70
same,pIC50,SW982,< 5.70
same,pIC50,BV-173,7.96
same,pIC50,TE-6,< 5.70
same,pIC50,TGBC24TKB,< 5.70
same,pIC50,U-266,< 5.70
same,pIC50,UACC-257,< 5.70
same,pIC50,no-11,< 5.70
same,pIC50,CGTH-W-1,6.19
CS(=O)(=O)c1ccc(C(=O)Nc2ccc(Cl)c(-c3ccccn3)c2)c(Cl)c1 [VISMODEGIB],pIC50,D-247MG,< 5.00
same,pIC50,DJM-1,< 5.00
same,pIC50,DMS-79,< 5.00
same,pIC50,EW-1,< 5.00
same,pIC50,EW-18,< 5.00
same,pIC50,GAK,< 5.00
same,pIC50,GB-1,< 5.00
same,pIC50,HCC 2998,< 5.00
same,pIC50,HDLM-2,5.09
same,pIC50,IST-MEL1,< 5.00
same,pIC50,K562,< 5.00
same,pIC50,KALS-1,< 5.00
same,pIC50,KINGS-1,< 5.00
same,pIC50,L-363,< 5.00
same,pIC50,LOX IMVI,< 5.00
same,pIC50,LS-123,< 5.00
same,pIC50,MOLT-4,< 5.00
same,pIC50,MS-1,< 5.00
same,pIC50,Mo,< 5.00
same,pIC50,NB10,< 5.00
same,pIC50,NB17,< 5.00
same,pIC50,NCI-H1299,< 5.00
same,pIC50,NCI-H1304,< 5.00
same,pIC50,NCI-H1581,< 5.00
same,pIC50,NCI-H1770,< 5.00
same,pIC50,NCI-H526,< 5.00
same,pIC50,OCI-AML2,< 5.00
same,pIC50,OCUB-M,< 5.00
same,pIC50,OVCAR-4,< 5.00
same,pIC50,PSN1,< 5.00
same,pIC50,RH-1,< 5.00
same,pIC50,RPMI-8226,< 5.00
same,pIC50,RPMI-8866,< 5.00
same,pIC50,RXF 393,< 5.00
same,pIC50,Ramos-2G6-4C10,< 5.00
same,pIC50,SCC-15,< 5.00
same,pIC50,SCH,< 5.00
same,pIC50,SF-268,< 5.00
same,pIC50,SK-MEL-2,< 5.00
same,pIC50,SW 954,< 5.00
same,pIC50,SW982,< 5.00
same,pIC50,BV-173,< 5.00
same,pIC50,TE-6,< 5.00
same,pIC50,TGBC24TKB,< 5.00
same,pIC50,U-266,< 5.00
same,pIC50,UACC-257,< 5.00
same,pIC50,no-11,< 5.00
same,pIC50,CGTH-W-1,< 5.00
